The text below walks through data of patent EP4778531A1, “MUSCLE RELAXANT ANTAGONIST FOR REVERSAL FOR BENZYLISOQUINOLINE MUSCLE RELAXANT” (priority 2023, dated 2025).

The subject of the data set is Wild-type AB strain zebrafish. As to the kind of experiment: Evaluation of compound-induced sensitization risk in zebrafish (tryptase OD, BAPNA). The following applies: 500 ng/tail. The class given is in vivo. How it is done:
Wild-type AB strain zebrafish at 2 days post-fertilization (2 dpf) were randomly selected and placed in 24-well plates. Each group was with 6 replicate wells per group and 10 zebrafish per well. The following groups were set up: (1) Normal control group; (2) Positive control group (the used drug was mast cell sensitizer C48/80 at 1.5 µg/mL concentration); (3) Compound 1 (adamgammadex sodium) experimental group; (4) Compound 2 experimental group; (5) Compound 3 experimental group; (6) Compound 4 experimental group; (7) Compound 5 experimental group; (8) Compound 6 experimental group; (9) Compound 7 (sugammadex sodium) experimental group. In the experimental groups, Compound 1 was adamgammadex sodium, Compounds 2-6 were adamgammadex sodium analogues, and Compound 7 was sugammadex sodium. The volume of each well was 1 mL, and all experimental groups were treated with BAPNA (a specific detection reagent for mast cell degranulation) dissolved in water. Table 1: Structural Formulas of Compounds 1-7
After 1 day of treatment at 28°C, the liquid was transferred to a 96-well plate, with 200 µL/well. The relative absorbance (OD value) of tryptase expression levels in each experimental group was measured using a microplate reader. The OD value statistical analysis results were used to evaluate the sensitization risk of the samples. Statistical analysis was performed using SPSS software, with p < 0.05 indicating a significant difference. Sensitization risk (%) = (OD(Samplegroup)−OD(NormalControlgroup))/(OD (NormalControlgroup)) × 100% [formula]

On to Adamgammadex sodium [Compound 1], for which the “OD value (mean ± SE)” value (1 day at 28°C, relative absorbance of tryptase expression levels) is given as 0.060 ± 0.001. Besides, where the note is “1 day at 28°C, vs normal control OD”, the “Sensitization risk (%)” value is 11%. Besides, the “sensitization risk (in words)” value (conclusion from OD value) was “almost no sensitization risk”.
